Where two headings read alike, the source gives them in different places.
Columns and labels:
P. falciparum K1 = assay: In vitro activity against erythrocytic stages of P. falciparum, 3H-hypoxanthine incorporation assay; assay type: cell-based; conditions: Plasmodium falciparum
Experimental: (§1) VI. Design and Results of the in vitro & in vivo Studies.
A. Drug inhibition of in vitro cultured P. falciparum parasite:[2] All in vitro assays were carried out twice independently in duplicate.In vitro activity against theerythrocytic stages of P. falciparum was determined by using a 3H-hypoxanthine incorporation assay, using the chloroquine and pyrimethamine resistant K1 strain and the standard drugs chloroquine (Sigma C6628) and artemisinin (Arteannuin, Qinghaosu; Sigma 36,159- 3). Compounds were dissolved in DMSO at 10 mg/mL and added to parasite cultures incubated in RPMI 1640 medium without hypoxanthine, supplemented with HEPES (5.94 g/L), NaHCO3 (2.1 g/L), neomycin (100U/mL), AlbumaxR (5 g/L), and washed human red cells A+ at 2.5% haematocrit (0.3% parasitaemia). Serial doubling dilutions of each drug were prepared in 96-well microtiter plates and incubated in a humidified atmosphere at 37 °C; 4% CO 2, 3% O2, 93% N2. After 48 h, 50 µLof 3H-hypoxanthine (= 0.5 µCi) was added to each well of the plate. The plates were incubated for an additional 24 h under the same conditions. The plates were then harvested with a Betaplate cell harvester (Wallac, Zurich, Switzerland), and the red blood cells were transferred onto a glass fiber filter and then washed with distilled water. The dried filters were inserted into a plastic foil with 10 mL of scintillation fluid and were counted in a Betaplate™ liquid scintillation counter (Wallac, Zurich, Switzerland); IC50values were calculated from sigmoidal inhibition curves using Microsoft Excel. […]

[1] = In vitro cytotoxicity assay in L-6 cells (Alamar Blue); conditions: rat
Experimental: as §1
A. Drug inhibition of in vitro cultured P. falciparum parasite:[2] […]
B. In vitro cytotoxicity assay: [2] Assays were performed in 96-well microtiter plates, each well containing 100 µl of RPMI 1640 medium supplemented with 1% L-glutamine (200mM) and 10% fetal bovine serum, and 4 x 10^4 L-6 cells (a primary cell line derived from rat skeletal myoblasts).
Serial drug dilutions of seven 3-fold dilution steps covering a range from 90 to 0.123 µg/mL were prepared. After 72 h of incubation the plates were inspected under an inverted microscope to assure growth of the controls and sterile conditions. 10µL of Alamar Blue was then added to each well and the plates incubated for another 2 h. Then the plates were read with a Spectramax Gemini XS microplatefluorometer (Molecular Devices Cooperation, Sunnyvale, CA, USA) using an excitation wave length of 536 nm and an emission wave length of 588 nm. Data were analysed using the microplate reader software Softmax Pro (Molecular Devices Cooperation, Sunnyvale, CA, USA).

P. falciparum = tested on: P. falciparum; parameters: method as in PMID 23918316, PMID 23517371; conditions: cited from earlier work
P. berghei ANKA GFP = assay: In vivo antimalarial efficacy, P. berghei mouse model (4 days treatment); parameters: species or system Plasmodium berghei; conditions: 10 mg/kg/day × 4, ip, NMRI mice
Experimental: C. In vivo antimalarial efficacy studies (4 days treatment).[2]
In vivo antimalarial activity was assessed basically as previously described. Groups of three female […]
GFP-transfected P. berghei strain ANKA. .Unless otherwise indicated compounds were formulated in 100% DMSO, diluted 10-fold in distilled water and administered intraperitoneally in a volume of 10 mL kg-1 on four consecutive days (4, 24, 48 and 72 h post infection). Parasitemia was determined on day 4 post infection (24 h after last treatment) by FACS analysis. Activity was calculated as the difference between the mean per cent parasitaemia for the control (n=5 mice) and treated groups expressed as a per cent relative to the control group. The survival time in days was also recorded up to 30 days after infection. A compound was considered curative if the animal survived to day 30 after infection with no detectable parasites. In vivo efficacy studies in mice were conducted at the Swiss Tropical and Public Health Institute (Basel) according to the rules and regulations for the protection of animal rights ("Tierschutzverordnung") of the Swiss "BundesamtfürVeterinärwesen". They were approved by the veterinary office of Canton Basel-

[2] = K1 strain (chloroquine and pyrimethamine resistant), means of two independent assays, read-out: P. falc. EC50
[3] = L-6 cells (rat skeletal myoblasts)

Structure (SMILES)	EC50 (P. falciparum K1; [2]) [µM]	EC50 at 72 h [1, 3] [µM]	melting point	further results
Cc1cc(/C=C2\S/C(=N\c3ccccc3)N(C3CCCCC3)C2=O)c(C)n1-c1ccc(Br)cc1 [Compound 21, (2Z,5Z)-3-Cyclohexyl-5-((1-(4-bromophenyl)-2,5-dimethyl-1H-pyrrol-3-yl)methylene)-2-(phenylimino)thiazolidin-4-one]	0.42	> 170	243 to 244 °C	
Cc1cc(/C=C2\S/C(=N\c3ccccc3)N(C3CCCCC3)C2=O)c(C)n1-c1ccccc1 [Compound 22]	0.25	> 200	198 to 199 °C	
Cc1cc(/C=C2\S/C(=N\c3ccccc3)N(C3CCCCC3)C2=O)c(C)n1-c1ccc(C(F)(F)F)cc1 [Compound 23]	0.25	> 170	218 to 220 °C	
Cc1cc(/C=C2\S/C(=N\c3ccccc3)N(C3CCCCC3)C2=O)c(C)n1-c1cccc(C(F)(F)F)c1 [Compound 24]	1.9	> 170		
Cc1cc(/C=C2\S/C(=N\c3ccccc3)N(C3CCCCC3)C2=O)c(C)n1-c1ccccc1C(F)(F)F [Compound 25]	0.78	> 170	125 to 127 °C	
Cc1cc(/C=C2\S/C(=N\c3ccccc3)N(C3CCCCC3)C2=O)c(C)n1-c1ccc(N2CCOCC2)cc1 [Compound 26]	0.09	> 170	155 to 156 °C	
Cc1cc(/C=C2\S/C(=N\c3ccccc3)N(C3CCCCC3)C2=O)c(C)n1CCN1CCOCC1 [Compound 27]	0.61	71		
O=C1/C(=C/c2ccn(-c3ccccc3C(F)(F)F)c2)S/C(=N\c2ccccc2)N1C1CCCCC1 [Compound 28]	2.3	> 180	145 to 147 °C	
O=C1/C(=C/c2ccn(Cc3ccccc3)c2)S/C(=N\c2ccccc2)N1C1CCCCC1 [Compound 29]	1.6	> 200	68 to 70 °C	
Cc1cc(/C=C2\S/C(=N\c3ccccc3)N(C3CCCCC3)C2=O)c(C)[nH]1 [Compound 30]	3.4	23		
Cc1cc(/C=C2\S/C(=N\c3ccccc3)N(C3CCCCC3)C2=O)c(C)n1C [Compound 31]	1.9	> 230	184 to 185 °C	
O=C1/C(=C/c2cnn(-c3ccccc3C(F)(F)F)c2)S/C(=N\c2ccccc2)N1C1CCCCC1 [Compound 32]	1.9	> 180		
Cc1cc(/C=C2\S/C(=N\c3ccccc3)N(C)C2=O)c(C)n1-c1ccccc1 [Compound 33]	2.6	> 230	203 to 205 °C	
CC1=CC(/C=C2\S/C(=N\c3ccccc3)N(C)C2=O)=C(C)C1c1ccccc1C(F)(F)F (stereo not shown) [Compound 34]	2.2	> 200		
Cc1cc(/C=C2\S/C(=N\c3ccccc3)N(C)C2=O)c(C)n1-c1ccc(N2CCOCC2)cc1 [Compound 35]	1.5	120	288 °C	
Cc1cc(/C=C2\S/C(=N\c3ccccc3)N(C)C2=O)c(C)n1CCN1CCOCC1 [Compound 36]	0.99	> 210		
CN1C(=O)/C(=C/c2ccn(Cc3ccccc3)c2)S/C1=N\c1ccccc1 [Compound 37]	3.9	> 240	155 to 156 °C	
CN1C(=O)/C(=C/c2cnn(-c3ccccc3C(F)(F)F)c2)S/C1=N\c1ccccc1 [Compound 38]	4.6	180		

Structure (SMILES)	EC50 (P. falciparum K1; [2]) [µM]	EC50 at 72 h [1, 3] [µM]	melting point	further results
C/N=C1\S/C(=C\c2cc(C)n(-c3ccc(N4CCOCC4)cc3)c2C)C(=O)N1C [Compound 39]	> 13	> 220	333 to 334 °C	
C/N=C1\S/C(=C\c2cc(C)n(CCN3CCOCC3)c2C)C(=O)N1C [Compound 40]	5.6	78		
C/N=C1\S/C(=C\c2ccn(-c3ccccc3C(F)(F)F)c2)C(=O)N1C [Compound 41]	4.7	4	54 to 55 °C	
C/N=C1\S/C(=C\c2ccn(Cc3ccccc3)c2)C(=O)N1C [Compound 42]	9.5	> 290	128 to 130 °C	
C/N=C1\S/C(=C\c2cnn(-c3ccccc3C(F)(F)F)c2)C(=O)N1C [Compound 43]	3.6	34	170 to 172 °C	
Cc1cc(/C=C2\SC(=O)NC2=O)c(C)n1-c1ccccc1C(F)(F)F [Compound 44]	1.9	64	234 to 235 °C	
Cc1cc(/C=C2\SC(=O)N(C)C2=O)c(C)n1-c1ccccc1 [Compound 45]	2.2	> 290	195 to 196 °C	
Cc1cc(/C=C2/SC(=O)NC2=O)c(C)n1-c1ccccc1C(F)(F)F [Compound 46]	8.4	43	205 to 210 °C	
Cc1cc(/C=C2/SC(=N)NC2=O)c(C)n1-c1ccccc1C(F)(F)F [Compound 47]	5.8	56	285 to 290 °C	
Cc1cc(/C=C2/SC(=S)NC2=O)c(C)n1-c1ccccc1C(F)(F)F [Compound 48]	21	9	255 to 258 °C	
Cc1cc(/C=C2\NC(=O)NC2=O)c(C)n1-c1ccccc1C(F)(F)F [Compound 49]	13	84	265 to 267 °C	
Cc1cc(/C=C2\NC(=O)NC2=O)c(C)n1-c1ccccc1 [Compound 50]	11	> 320	267 to 270 °C (dec.)	
Cc1cc(C=C2C(=O)NC(=O)NC2=O)c(C)n1-c1ccccc1C(F)(F)F [Compound 51]			> 300 °C	EC50 (P. falciparum K1; K1, read-out: P. falc. EC50): 16 µM; EC50 at 72 h [1]: 120 µM
Cc1cc(C=C2C(=O)NC(=S)NC2=O)c(C)n1-c1ccccc1C(F)(F)F [Compound 52]			> 300 °C	EC50 (P. falciparum K1; K1, read-out: P. falc. EC50): 29 µM; EC50 at 72 h [1]: 16 µM
CCOC(=O)C1=C(C)N/C(=C/c2cc(C)n(-c3ccccc3C(F)(F)F)c2C)C1=O [TDR32750]				selectivity compared to L6 mammalian cells (P. falciparum; L6 vs P. falciparum): > 2000 fold; EC50 (P. falciparum; read-out: EC50 against P. falciparum): 0.009 µM
CCN(CC)CCCC(C)Nc1ccnc2cc(Cl)ccc12 (stereo not shown) [chloroquine]				EC50 (P. falciparum K1; K1, read-out: EC50, control for P. falciparum K1): 0.1 µg/mL; % Reduction parasitaemia P. berghei ANKA GFP (P. berghei ANKA GFP): 99.97%; Survival (P. berghei ANKA GFP; control 7 days): 20 days
COc1cc([C@@H]2c3cc4c(cc3[C@H](O)[C@H]3COC(=O)[C@H]23)OCO4)cc(OC)c1OC [podophyllotoxin, reference compound]				EC50 at 72 h [1]: 0.005 µg/mL

From PMC4607724, “Discovery and optimisation studies of antimalarial phenotypic hits” (European Journal of Medicinal Chemistry, 2015)
